Experimental data taken from patent publication US6184246A, “Inhibition of cytokine production by polymethoxylated flavones” (priority 1999, dated 2001).
Entries after “also recorded” stand apart in the source; their conditions may differ.

Key:
[1] = test system: type-IV phosphodiesterase semi-purified from U937 cells; assay: Phosphodiesterase cAMP SPA enzyme assay; type: biochemical; details: hydrolysis of cAMP; read-out: concentration inhibiting phosphodiesterase activity 50%
Method: PDE semipurified from U937 monocytic cells was evaluated for the ability to catalyze the hydrolysis of cAMP in the presence of graded concentrations of flavone, myricetin, and HMF as described below. The rates are plotted as percent of control-reactions, where no flavonoids were present. Testing flavones as phosphodiesterase inhibitors and inducers of cellular cyclic adenosine monophosphate (cAMP): The Phosphodiesterase cAMP SPA Enzyme Assay (Amersham, Arlington Heights, Ill.) was used to test the ability of flavones to inhibit cAMP hydrolysis catalyzed by phosphodiesterase. The phosphodiesterase used in this study was semi-purified from U937 cells, and was determined to be mostly the type-IV isoform based on sensitivity to selected isoform inhibitors (Trophy, T. J., J. Pharmacol. Experimental Therapeutics, 1195-1205 (1992)).

IL-10 = IL-10 production by LPS-stimulated human monocytes (ELISA); type: cell-based
Method: (§1) Adherent purified human monocytes were cultured in the presence of graded concentrations of heptamethoxyflavone for 30 min. The monocyte cultures were then adjusted to contain 20 ng/mL LPS. After 14 h of culture, the cytokines TNFα, IL-6, IL-8, MIP-1α, and IL-10 were assayed in the culture supernatants and IL-1β was assayed in the cell lysates using specific ELISA assays as described below. Values expressed as the percent of cytokine produced in flavone-free cultures are the means and standard errors determined using monocytes isolated from three independent donors.
(§2) Isolation of human peripheral blood monocytes: Peripheral blood mononuclear cells (PBMCs) were isolated from residual source leukocytes (Bonfils Blood Center, CO) by density gradient centrifugation using Ficoll-Paque Plus (Pharmacia, Sweden). Monocytes were purified further by plastic adherence (see below) or by centrifugal elutriation as described previously (Manthey, C. L., et al., J. Leuk Biol., 64: 409-416 (1998)).
(§3) IL-1β was measured in cell lysates by ELISA.

TNFα = TNFα production by LPS-stimulated human monocytes (ELISA); type: cell-based
Method: Isolation of human peripheral blood monocytes: Peripheral blood mononuclear cells (PBMCs) were isolated from residual source leukocytes (Bonfils Blood Center, CO) by density gradient centrifugation using Ficoll-Paque Plus (Pharmacia, Sweden).
To measure the impact of the flavones on cytokine production, PBMCs were resuspended to 4×10^6 /mL in complete medium, i.e., Dulbecco's Modified Eagle Medium containing 30% FCS, 2 mM glutamine, 100 U/mL Penicillin-G, and 100 μg/mL streptomycin. […] Nonadherent cells (lymphocytes) were separated from the plastic adherent cells (monocytes) by washing the wells twice with 200 μL of medium. The monocytes were cultured an additional 30 min in 100 μL of complete medium containing graded concentrations of the compound of interest and the cultures were then adjusted to contain […] LPS to stimulate cytokine production. Culture supernatants were harvested 14 h later, and cells were lysed by addition of 50 μL of Dulbecco's phosphate buffered saline containing 1% NP40. Culture supernatants were evaluated for TNFα, IL-1β, IL-6, IL-8, IL-10, and MIP-1α content using specific enzyme-linked immunosorbent assays (ELISA) purchased from R&D Systems. IL-1β was measured in cell lysates by ELISA. Lactate dehydrogenase (LDH) content of cell lysates was measured to determine compound effects on cell viability: To 50 μL of lysate were added 200 μL of 50 mM sodium pyrophosphate buffer (pH 8.9) containing 50 mM lactic acid and 4 mg/mL β-nicotinamide adenine dinucleotide (Sigma); rates of reduction of nicotinamide adenine dinucleotide were measured at room temperature at 340 nm.

IL-8 = IL-8 production by LPS-stimulated human monocytes (ELISA); type: cell-based
Method: as §1, §2, §3

intracellular cAMP = assay: Cellular cAMP in human monocytes (EIA); type: cell-based; details: 100 μM, 30 min
Method: To test flavones for the ability to cause an increase in cellular cAMP, monocytes were purified from PBMC by centrifugal elutriation. Monocytes were resuspended to 5×10^6 /mL in complete medium and 2 mL cell suspension were dispensed into FALCON 17×100 mm polypropylene culture tubes (Becton Dickinson). The cells were precultured 2 h at 37° C. and 5% CO2, and then cultured an additional 30 min following adjusting culture media to contain 100 μM of the flavone of interest or 200 μM IBMX (3-isobutyl-1-methylxanthine). Cells were then collected by centrifugation, lysed in 300 μL of ice cold aqueous solution containing 10 mM HEPES (pH 7.6) and 1% NP40. The lysates were applied to 100 mg columns of Amprep SAX resin (Amersham). The columns were then rinsed with 1 mL of methanol and the cAMP was eluted in 600 μL of methanol containing 0.01 M HCl. The eluates were chilled on dry ice and dried under vacuum. The Amersham Biotrak cAMP EIA assay was used to measure cAMP content of residues resuspended in 400 μL of assay buffer.

IL-1β mRNA = IL-1β mRNA level by RT-PCR in LPS-stimulated monocytes; type: cell-based, human; details: data not shown
Method: (§4) Analysis of specific mRNA levels by reverse transcriptase-polymerase chain reaction (RT-PCR): Monocytes were purified from PBMC by centrifugal elutriation. Monocytes were resuspended to 5×10^6 /mL in complete medium and 2 mL of cell suspension were dispensed into FALCON 17×100 mm polypropylene culture tubes (Becton Dickinson). Cultures were adjusted to contain graded concentrations of HMF and cultured 30 min at 37° C. and 5% CO2. Cultures were then adjusted to contain 20 ng/mL LPS for an additional 90 min. Culture media was then removed and monocytes were lysed in RNAzol (Teltext Inc., Friendswood, Tex.) and total RNA was isolated according to the manufacturer's instructions. Relative levels of TNFα and IL-1β mRNA were then measured by RT-PCR as previously described (Manthey, C. L., J. Leuk Biol. 1998, 64: 409-416). PCR was carried out in the presence of [α-^32 P]dCTP. Radiolabeled products were resolved by agarose gel electrophoresis and quantified using a PhosphorImager (Molecular Dynamics, Sunnyvale, Calif.). For these reactions, the following primer sets were used:
IL-1β, (5'): GACACATGGGATAACGAGGCT, (3'): ACGCAGGACAGGTACAGATTC.

IL-1β = IL-1β production by LPS-stimulated human monocytes (ELISA, cell lysates); type: cell-based
Method: as §1, §2, §3

IL-6 = IL-6 production by LPS-stimulated human monocytes (ELISA); type: cell-based
Method: as §1, §2, §3

MIP-1α = MIP-1α production by LPS-stimulated human monocytes (ELISA); type: cell-based
Method: as §1, §2, §3

TNFα mRNA = TNFα mRNA level by RT-PCR in LPS-stimulated monocytes; type: cell-based, human; details: graded concentrations, 20 ng/mL LPS, 90 min, GAPDH internal standard
Method: Primary elutriated human monocytes were cultured in the presence of graded concentrations of HMF for 30 min. The monocyte cultures were then adjusted to contain 20 ng/mL LPS. At 90 min of culture, monocytes were harvested by centrifugation, and RNA was isolated from the cell pellet. Relative levels of TNFα and the constitutively expressed glyceraldehyde 3-phosphate dehydrogenase (GAPDH) mRNA were determined by RT-PCR as described below.
as §4, with “Culture media was then removed and monocytes were lysed in RNAzol (Teltext Inc., Friendswood, Tex.) and total RNA was isolated according to the manufacturer's instructions.” left out, “PCR was carried out in the presence of [α-^32 P]dCTP.” left out, “For these reactions, the following primer sets were used:” left out

[2] = cytokine suppression profile, HMF compared against IBMX (Table 2)

COc1ccc(-c2oc3c(OC)c(OC)c(OC)c(OC)c3c(=O)c2OC)cc1OC [HMF, 3,5,6,7,8,3',4'-heptamethoxyflavone]
IC50 [1]: 2 µM | inhibition of IL-10 production (in words) (IL-10; LPS-stimulated human monocytes): potent inhibitor; also recorded: inhibition | IC50 (IL-10; Monocyte, monocytes from three independent human donors, LPS, 14 h, read-out: IC50 for inhibition of IL-10): 12.3 ± 3.5 µM | inhibition of TNFα production (in words) (TNFα; LPS-stimulated human monocytes): potent inhibitor | IC50 (TNFα; Monocyte, human monocytes, 30 min preculture with compound, LPS, 14 h, 30% FCS, read-out: IC50 for inhibition of TNFα production): 5 µM | inhibition of lipopolysaccharide-induced expression of IL-8 (IL-8; 100 μM): no inhibition | suppression of IL-8 production (IL-8; [2]): neither suppressed | increase of monocyte cAMP levels over media alone (in words) (intracellular cAMP): at least a doubling | intracellular cAMP level (intracellular cAMP; media alone 2.7±0.9): 5.7±1.8 pmol/10^7 cells | induction of IL-1β mRNA (IL-1β mRNA): not effected | inhibition of lipopolysaccharide-induced expression of IL-1β (IL-1β; 100 μM): no inhibition | suppression of IL-1β production (IL-1β; [2]): neither suppressed | inhibition of lipopolysaccharide-induced expression of IL-6 (IL-6; 100 μM): no inhibition | activation at 100 µM (IL-6; Homo sapiens, Monocyte, 14 h, 100 μM, read-out: increase of IL-6 expression): 30% | suppression of IL-6 production (IL-6; [2]): neither suppressed | inhibition of MIP-1α production (in words) (MIP-1α; LPS-stimulated human monocytes): potent inhibitor | IC50 (MIP-1α; Monocyte, monocytes from three independent human donors, LPS, 14 h, read-out: IC50 for inhibition of MIP-1α): 7.3 ± 0.7 µM | suppression of lipopolysaccharide-induced TNFα mRNA expression (TNFα mRNA): suppress; also recorded: selectively blocks
